Patent publication US8716324B2, “Tricyclic indeno-pyrrole derivatives as serotonin receptor modulators” (Athersys, Inc., priority 2004, dated 2014)

Target: human 5HT2c receptor (VSV Isoform) (Homo sapiens, UniProt P28335, I156V/I160V/N158S)
Test: cell-based
Conditions: 5-HT2c EC50 (hVSV, μM)

Sequence of human 5HT2c receptor (VSV Isoform) (P28335 33-458 I156V/N158S/I160V limits assumed): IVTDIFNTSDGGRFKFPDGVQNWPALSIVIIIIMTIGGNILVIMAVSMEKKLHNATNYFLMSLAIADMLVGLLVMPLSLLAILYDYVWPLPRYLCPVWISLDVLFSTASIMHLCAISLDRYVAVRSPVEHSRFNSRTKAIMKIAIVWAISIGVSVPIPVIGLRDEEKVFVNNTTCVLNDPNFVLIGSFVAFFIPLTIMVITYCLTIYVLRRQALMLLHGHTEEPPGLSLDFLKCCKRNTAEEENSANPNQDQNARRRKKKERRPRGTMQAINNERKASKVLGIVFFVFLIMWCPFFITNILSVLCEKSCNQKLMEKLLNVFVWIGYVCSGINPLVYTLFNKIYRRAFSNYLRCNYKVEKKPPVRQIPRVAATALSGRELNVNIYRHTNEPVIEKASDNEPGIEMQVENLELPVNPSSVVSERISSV

SMILES | EC50 [µM]
c1ccc2c(c1)CC1CNCC21 (stereo not shown) [Example 10, 1,2,3,3a,8,8a-Hexahydroindeno[1,2-c]pyrrole] | < 10
Clc1ccc2c(c1)CC1CNCC21 (stereo not shown) [Example 11, 6-Chloro-1,2,3,3a,8,8a-hexahydroindeno[1,2-c]pyrrole] | < 0.1
CC1c2c(ccc(Cl)c2Cl)C2CNCC12 (single isomer, unassigned) [27, Enantiomer 2] | < 0.1
CC1c2cc(Cl)c(OCc3ccccc3)cc2C2CNCC12 (stereo not shown) [Example 7, 5-Benzyloxy-6-chloro-8-methyl-1,2,3,3a,8,8a-hexahydroindeno[1,2-c]pyrrole] | < 10
COc1cc2c(cc1Cl)C(C)C1CNCC21 (stereo not shown) [Example 3, 5-Methoxy-6-chloro-8-methyl-1,2,3,3a,8,8a-hexahydroindeno[1,2-c]pyrrole] | < 0.1
CC1c2cc(Br)c(O)cc2C2CNCC12 (single isomer, unassigned) [31, Enantiomer 2] | < 0.1
COc1c(Cl)cc2c(c1Cl)C1CNCC1C2C (single isomer, unassigned) [38, Enantiomer 2] | < 0.1
CC1c2c(ccc(Cl)c2Cl)C2CNCC12 (stereo not shown) [Example 27, 6,7-Dichloro-8-methyl-1,2,3,3a,8,8a-hexahydroindeno[1,2-c]pyrrole] | < 0.1
Cc1ccc2c(c1)C(C)C1CNCC21 (single isomer, unassigned) [15, Enantiomer 1] | < 0.1
CC1c2ccc(OCc3ccc(F)cc3)cc2C2CNCC12 (single isomer, unassigned) [46, Enantiomer 2] | < 10
COc1cc2c(cc1Br)C(C)C1CNCC21 (single isomer, unassigned) [30, Enantiomer 2] | < 0.01
Cc1ccc2c(c1)C(C)C1CNCC21 (single isomer, unassigned) [15, Enantiomer 2] | < 1
CC1c2cc(Cl)c(OCC3CC3)cc2C2CNCC12 (stereo not shown) [Example 39, 5-Cyclopropylmethoxy-6-chloro-8-methyl-1,2,3,3a,8,8a-hexahydroindeno[1,2-c]pyrrole] | < 1
CC1c2cc(Cl)cc(Cl)c2C2CNCC12 (stereo not shown) [Example 28, 4,6-Dichloro-8-methyl-1,2,3,3a,8,8a-hexahydroindeno[1,2-c]pyrrole] | < 0.1
CC1c2cc(Cl)c(O)cc2C2CNCC12 (single isomer, unassigned) [4, Enantiomer 2] | < 0.1
CC1c2cc(Cl)c(Cl)cc2C2CNCC12 (stereo not shown) [Example 26, 5,6-Dichloro-8-methyl-1,2,3,3a,8,8a-hexahydroindeno[1,2-c]pyrrole] | < 0.1
COc1ccc2c(c1Cl)C1CNCC1C2C (single isomer, unassigned) [25, Enantiomer 2] | < 1
Cc1cc2c(cc1Br)C1CNCC1C2C (stereo not shown) [Example 24, 5-Bromo-6-methyl-8-methyl-1,2,3,3a,8,8a-hexahydroindeno[1,2-c]pyrrole] | < 1
CC1c2ccc(OCc3ccccc3)cc2C2CNCC12 (single isomer, unassigned) [43, Enantiomer 2] | < 10
COc1ccc2c(c1)C1CNCC1C2C (stereo not shown) [Example 1, 5-Methoxy-8-methyl-1,2,3,3a,8,8a-hexahydroindeno[1,2-c]pyrrole] | > 10
COc1cc2c(cc1OC)C1CNCC1C2C (single isomer, unassigned) [36, Enantiomer 1] | > 10
CCOc1cc2c(cc1Cl)C(C)C1CNCC21 (single isomer, unassigned) [29, Enantiomer 2] | < 0.1

SMILES | EC50 [µM]
COc1cc2c(cc1Cl)C(C)C1CNCC21 (single isomer, unassigned) [3, Enantiomer 2] | < 0.1
CC1c2ccc(OCc3cccc(F)c3)cc2C2CNCC12 (single isomer, unassigned) [45, Enantiomer 2] | < 10
CC1c2ccc(Cl)cc2C2CNCC12 (stereo not shown) [Example 20, 5-Chloro-8-methyl-1,2,3,3a,8,8a-hexahydroindeno[1,2-c]pyrrole] | < 10
CC1c2c(ccc(Cl)c2F)C2CNCC12 (single isomer, unassigned) [42, Enantiomer 2] | < 0.1
COc1ccc2c(c1OC)C1CNCC1C2C (single isomer, unassigned) [34, Enantiomer 1] | < 1
CC1c2cc(Cl)ccc2C2CNCC12 (stereo not shown) [Example 5, 6-Chloro-8-methyl-1,2,3,3a,8,8a-hexahydroindeno[1,2-c]pyrrole] | < 0.1
COc1c(Cl)cc2c(c1OC)C1CNCC1C2C (single isomer, unassigned) [35, Enantiomer 1] | < 0.1
CC1c2cc(Cl)c(OCc3ccc(F)cc3)cc2C2CNCC12 (stereo not shown) [Example 6, 5-(4-Fluorobenzyloxy)-6-chloro-8-methyl-1,2,3,3a,8,8a-hexahydroindeno[1,2-c]pyrrole] | < 1
CCC1c2ccc(OC)cc2C2CNCC12 (stereo not shown) [Example 48, 5-Methoxy-8-ethyl-1,2,3,3a,8,8a-hexahydroindeno[1,2-c]pyrrole] | > 10
Fc1cccc(F)c1-c1ccc2c(c1)CC1CNCC21 (stereo not shown) [Example 12, 6-(2,6-Difluorophenyl)-1,2,3,3a,8,8a-hexahydroindeno[1,2-c]pyrrole] | > 10
CC1c2cc(F)ccc2C2CNCC12 (stereo not shown) [Example 19, 6-Fluoro-8-methyl-1,2,3,3a,8,8a-hexahydroindeno[1,2-c]pyrrole] | < 1
CC1c2ccc(O)cc2C2CNCC12 (stereo not shown) [Example 2, 5-Hydroxy-8-methyl-1,2,3,3a,8,8a-hexahydroindeno[1,2-c]pyrrole] | < 0.1
Cc1cc2c(cc1Br)C(C)C1CNCC21 (stereo not shown) [Example 22, 5-Methyl-6-bromo-8-methyl-1,2,3,3a,8,8a-hexahydroindeno[1,2-c]pyrrole] | < 1
COc1ccc2c(c1Cl)C1CNCC1C2O (stereo not shown) [Example 54, 4-Chloro-5-methoxy-2,3,3a,8a-tetrahydro-1H-2-aza-cyclopenta[a]inden-8-ol] | < 1
Cc1cc2c(cc1Cl)C(C)C1CNCC21 (single isomer, unassigned) [21, Enantiomer 1] | < 1
CC1c2cc(Cl)c(OCc3ccccc3F)cc2C2CNCC12 (stereo not shown) [Example 8, 5-(2-Fluorobenzyloxy)-6-chloro-8-methyl-1,2,3,3a,8,8a-hexahydroindeno[1,2-c]pyrrole] | < 10
Cc1cc2c(cc1Cl)C(C)C1CNCC21 (single isomer, unassigned) [21, Enantiomer 2] | < 0.1
CC1c2cc(Cl)c(OCc3cccc(F)c3)cc2C2CNCC12 (stereo not shown) [Example 9, 5-(3-Fluorobenzyloxy)-6-chloro-8-methyl-1,2,3,3a,8,8a-hexahydroindeno[1,2-c]pyrrole] | < 10
CC1c2ccc(Cl)c(Cl)c2C2CNCC12 (single isomer, unassigned) [41, Enantiomer 1] | < 1
Cc1cc2c(cc1Cl)C(C)C1CNCC21 (stereo not shown) [Example 21, 5-Methyl-6-chloro-8-methyl-1,2,3,3a,8,8a-hexahydroindeno[1,2-c]pyrrole] | < 0.1
CC1c2cc(Cl)ccc2C2CNCC12 (single isomer, unassigned) [5, Enantiomer 1] | < 1
COc1c(Cl)cc2c(c1Cl)C1CNCC1C2C (stereo not shown) [Example 38, 4,6-Dichloro-5-Methoxy-8-methyl-1,2,3,3a,8,8a-hexahydroindeno[1,2-c]pyrrole] | < 0.1

SMILES | EC50 [µM]
CC1c2c(ccc(Cl)c2F)C2CNCC12 (single isomer, unassigned) [42, Enantiomer 1] | < 10
COc1c(Cl)cc2c(c1Cl)C1CNCC1C2C (single isomer, unassigned) [38, Enantiomer 1] | < 1
CC1c2ccc(O)cc2C2CNCC12 (single isomer, unassigned) [2, Enantiomer 2] | < 0.1
Cc1ccc2c(c1)C(C)C1CNCC21 (stereo not shown) [Example 15, 6-Methyl-8-methyl-1,2,3,3a,8,8a-hexahydroindeno[1,2-c]pyrrole] | < 1
CC1c2cc(Cl)c(Cl)cc2C2CNCC12 (single isomer, unassigned) [26, Enantiomer 1] | < 1
CC1c2cc(Cl)c(O)cc2C2CNCC12 (stereo not shown) [Example 4, 5-Hydroxy-6-chloro-8-methyl-1,2,3,3a,8,8a-hexahydroindeno[1,2-c]pyrrole] | < 1
CC1c2ccc(OCc3ccccc3F)cc2C2CNCC12 (single isomer, unassigned) [44, Enantiomer 2] | < 10
COc1cc2c(cc1-c1cccs1)C(C)C1CNCC21 (single isomer, unassigned) [32, Enantiomer 2] | > 10
CC1c2cc(Cl)c(OCc3ccc(F)cc3)cc2C2CNCC12 (single isomer, unassigned) [6, Enantiomer 2] | < 1
COc1cc2c(cc1Cl)C(O)C1CNCC21 (stereo not shown) [Example 55, 5-Methoxy-6-chloro-2,3,3a,8a-tetrahydro-1H-2-aza-cyclopenta[a]inden-8-ol] | < 10
Cc1ccc2c(c1)C1CNCC1C2C (stereo not shown) [Example 13, 5-Methyl-8-methyl-1,2,3,3a,8,8a-hexahydroindeno[1,2-c]pyrrole] | < 1
CC1c2ccc(O)cc2C2CNCC12 (single isomer, unassigned) [2, Enantiomer 1] | < 1
CC1c2c(ccc(Cl)c2Cl)C2CNCC12 (single isomer, unassigned) [27, Enantiomer 1] | < 1
CC1c2ccc(Cl)c(Cl)c2C2CNCC12 (single isomer, unassigned) [41, Enantiomer 2] | < 10
COc1cc2c(cc1C#N)C(C)C1CNCC21 (single isomer, unassigned) [33, Enantiomer 2] | < 1
CC1c2cc(Cl)c(Cl)cc2C2CNCC12 (single isomer, unassigned) [26, Enantiomer 2] | < 0.1
Cc1cccc2c1C(C)C1CNCC21 (stereo not shown) [Example 16, 7-Methyl-8-methyl-1,2,3,3a,8,8a-hexahydroindeno[1,2-c]pyrrole] | < 1
COc1cc2c(cc1OC)C1CNCC1C2C (single isomer, unassigned) [36, Enantiomer 2] | < 1
CC1c2ccc(-c3c(F)cccc3F)cc2C2CNCC12 (single isomer, unassigned) [47, Enantiomer 2] | > 10
CC1c2cccc(F)c2C2CNCC12 (stereo not shown) [Example 17, 4-Fluoro-8-methyl-1,2,3,3a,8,8a-hexahydroindeno[1,2-c]pyrrole] | < 10
